We go through 1 substance from US11571454B2, “Anticancer peptides that synergistically enhance chemotherapeutic potency” (The Penn State Research Foundation, priority 2017, dated 2023).

The subject of the data set is NCI/ADR-RES (drug-resistant ovarian carcinoma) cells. As to the kind of experiment: MTT cytotoxicity assay, NCI/ADR-RES. It counts as cell-based, human. Here is the method: All cells were cultured using standard culture conditions at 37° C., 5% CO2, and 95% humidity. A549 (CCL-185), OVCAR-3 (HTB-161), T24 (HTB-4), and NCI/ADR-RES were cultured in RPMI-1640 supplemented with 10% v/v fetal bovine serum (FBS), 2 mM L-glutamine (L-Gln), 10,000 units penicillin/mL, 10 mg/mL streptomycin, and 25 μg/mL amphotericin B. HUVEC (PCS-100-010) cells were cultured in Vascular Cell Basal Media (PCS-100-030) supplemented with an Endothelial Cell Growth Kit-VEGF (PCS-100-041) and 10 μg/mL gentamycin in culture flasks coated with 0.1% gelatin by incubating at 37° C. for 15 min. NL20 (CRL-2503) cells were cultured in Ham's F12 supplemented with 1.5 g/L sodium bicarbonate, 2.7 g/L glucose, 2.0 mM L-glutamine, 0.1 mM nonessential amino acids, 0.005 mg/ml insulin, 10 ng/ml epidermal growth factor, 0.001 mg/ml transferrin, 500 ng/ml hydrocortisone and 4% fetal bovine serum, as advised by American Type Culture Collection (ATCC).
Viability was calculated by comparing to an untreated control.
All experiments were performed with n>6.
Cell viability experiments were completed n>6 in two independent experiments and analyzed using GraphPad Prism 8 to fit curves and calculate IC50 values using inhibitor vs. normalized response non-linear regression model. IC50 values are reported as mean values±standard deviation. […] Pore size frequency distribution was completed by ImageJ FIJI on 4 independent cells and n=30 pores from SEM images. UV-Vis OD600 and CD spectra are means of 5 and 3 replicates, respectively and reported as mean±standard deviation. Individual UV-Vis and CD spectra, as well as fluorescent confocal and TEM micrographs, shown are representative plots from three individual experiments. CD data is with a variance in ellipticity of 0.2 millidegrees at each wavelength. Relative fluorescence data calculated from fluorescent confocal images represents the average of 10 independent measurements±standard deviation. For spheroid volume analysis, a Kruskal-Wallis test and Dunn's multiple comparisons test was performed using GraphPad Prism 8.
Background: Tetrazolium dyes change colour on reduction, which living cells bring about.

For the substance H-KRWHWWRRHWVVW-NH2 [MAD1], the IC50 (48 hours treatment, MTT, read-out: Cancerous (IC50, μM) NCl/ADR-RES) stood at 85.6 µM. Further, the “Therapeutic Index NCl/ADR-RES” value (IC50-HUVEC/IC50-NCI/ADR-RES) is on record as 1.2. The “cytotoxic activity against NCI/ADR-RES” value (result in words) is recorded as “moderate activity”.
